Structures are written as SMILES. ± gives the uncertainty stated by the source.

The subject of this assay is HEK293T-Rex ERSE-FLuc. The assay is described as follows: maximal ERSE-FLuc activation from dose-response fit, relative to thapsigargin (% of thapsigargin); higher = stronger activation. The conditions noted are these: 18 h. The procedure:
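Dose-response of hit compounds in HEK293T-Rex cells stably expressing ERSE-FLuc or XBP1-RLuc reporters, 18 hr treatment, 1536-well; luminescence normalised to 500 nM thapsigargin (100%) and DMSO (0%), fitted to give EC50 (M) and maximal activation; '>' marks EC50 above the top tested dose (~17 µM).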
Take `O=C(NC(c1ccccc1)c1ccccc1)c1csc(-c2cnccn2)n1`: the “maximal ERSE-FLuc activation” value was 34.2 ± 3.6. As to `O=[N+]([O-])c1ccc(N/N=C/c2ccccc2O)cc1`, the “maximal ERSE-FLuc activation” value worked out at 44.5 ± 7.8. For `O=C(N/N=C/c1ccc2c(c1)OCO2)c1cccc(F)c1`, the “maximal ERSE-FLuc activation” value was found to be 20.8 ± 5.2. In the case of `COc1ccc2oc(=Nc3cc(F)ccc3F)c(C(N)=O)cc2c1` it was 19.1 ± 2.2; in that of `CCCc1cc(C(=O)Nc2cc(C)ccc2O)no1`, 116 ± 9.5. For `O=C1/C(=C/c2ccc(O)c(O)c2)SC(=S)N1c1ccc(O)cc1`, the “maximal ERSE-FLuc activation” value is 77.1 ± 17. In the case of `Cc1ccc(C(=O)Nc2ccccc2N)cc1` it was 137 ± 15; in that of `O=[N+]([O-])c1ccc2nc(/C=C/c3ccccc3)[nH]c2c1`, 23.7 ± 12; in that of `Cc1ccc(O)c(-c2cc(-c3ccc(F)cc3)n[nH]2)c1`, 71.4 ± 16. On to `CC(C)c1ccc(NC(=O)/C=C/c2ccco2)cc1`, for which the “maximal ERSE-FLuc activation” value is 21.5 ± 4.6. With `Nc1nc(Nc2ccc(Cl)cc2)nc2ccccc12` the figure was 103 ± 24. In the case of `O=c1[nH]c(/C=C2\C=Nc3ccccc32)c(O)n1-c1ccc(Cl)cc1` it was 44.1 ± 7.8; in that of `O=C(Nc1ccc(Cl)cn1)c1ccc(Cl)cc1Cl`, 22.5 ± 8.3. Turning to `O=C(CCCN1CCC2(CC1)C(=O)NCN2c1ccccc1)c1ccc(F)cc1`, the “maximal ERSE-FLuc activation” value is 157 ± 16. Regarding `O=C(Nc1nc2c(s1)CCCC2)c1cccc2ccccc12`, the “maximal ERSE-FLuc activation” value worked out at 32.2 ± 1.6. Consider `COc1ccc(-c2nn(-c3ccccc3)cc2/C=C/C(=O)O)cc1[N+](=O)[O-]`, for which the “maximal ERSE-FLuc activation” value turned out to be 20.8 ± 4.1. As to `Nc1ccc2nc(-c3ccccn3)[nH]c2c1`, the “maximal ERSE-FLuc activation” value was found to be 16.8 ± 4.6. With `COC(=O)c1ccc(C(=O)Nc2ccccc2N)cc1` the figure was 91.1 ± 14; with `CCOc1cc(/C=C2/NC(=O)N(c3cccc(Cl)c3)C2=O)ccc1O`, 47.5 ± 4.4; with `Cc1cnc(NC(=O)c2sc3nc4c(C)cccc4cc3c2N)s1`, 58.9 ± 6.1. With `Cc1ccc(O)c(NC(=O)c2cc(-c3ccco3)on2)c1`, the “maximal ERSE-FLuc activation” value turned out to be 167.3 ± 1.6.

Take `OCCNc1nc(Nc2ccc(Cl)c(Cl)c2)nc2ccccc12`: the “maximal ERSE-FLuc activation” value was 144 ± 47. With `Cc1cc(C)nc(/N=C(\N)Nc2ccc(OCc3ccc(Cl)cc3)cc2)n1` the figure was 47.3 ± 7.6; with `c1ccc2cc(-c3cnnc(N4CCOCC4)n3)ccc2c1`, 25.2 ± 10.

As for `Cn1c(-c2cccc(Cl)c2)cnc1NC(=O)c1ccccc1`, the “maximal ERSE-FLuc activation” value came to 23.6 ± 2.5. As for `Cc1ccc(NC(=O)/C=C/c2ccco2)nc1`, the “maximal ERSE-FLuc activation” value turned out to be 17.5 ± 3.4. In the case of `C(=C\c1ccccc1)/C=N/Nc1nc2ccccc2[nH]1`, the “maximal ERSE-FLuc activation” value stood at 25.5 ± 3.7.

With `Cc1cc(C)nc(/N=C(\N)Nc2ccc(OCc3ccccc3)cc2)n1`, the “maximal ERSE-FLuc activation” value is 46.9 ± 15.

Consider `CC(=O)Oc1ccc2cc(NC(=O)c3ccc(C)cc3)c(=O)oc2c1`, for which the “maximal ERSE-FLuc activation” value was found to be 25.8 ± 1.6. Turning to `Nc1ccccc1NC(=O)c1ccc(Cl)cc1`, the “maximal ERSE-FLuc activation” value came out at 82.8 ± 4.7. In the case of `Cc1ccc(O)c(-c2cc(-c3cccs3)[nH]n2)c1`, the “maximal ERSE-FLuc activation” value amounted to 131 ± 8.8. In the case of `CN(C)c1ccc(-c2nc3ccc(N)cc3[nH]2)cc1` it was 42.7 ± 3.8; in that of `Cc1cc(C)c2nc3sc(C(=O)N4CCCCC4)c(N)c3cc2c1`, 34 ± 5.5.

Turning to `COc1ccc(/C=C/c2ccc3cccc(OC(C)=O)c3n2)cc1OC(C)=O`, the “maximal ERSE-FLuc activation” value worked out at 25.7 ± 5.6. As for `O=C(N/N=C/c1ccc(O)c(O)c1)c1cccc(Cl)c1`, the “maximal ERSE-FLuc activation” value came out at 69.2 ± 4.9. With `O=C(NCCCn1ccnc1)c1cc(-c2cccs2)on1`, the “maximal ERSE-FLuc activation” value was determined as 89.1 ± 3.8. Take `N#C/C(=C\c1ccc(O)c(O)c1)c1nc2ccccc2[nH]1`: the “maximal ERSE-FLuc activation” value is 37.6 ± 12. For the compound `Cc1cccc2c1[nH]c1nc(N/N=C\c3c[nH]c4ccccc34)nnc12`, the “maximal ERSE-FLuc activation” value worked out at 41.7 ± 12.

For `CC(=O)c1cccc(Nc2nc(-c3ccc(O)c(O)c3)cs2)c1`, the “maximal ERSE-FLuc activation” value was found to be 87.3 ± 28. As for `Nc1nc(Nc2ccc(Cl)c(Cl)c2)nc2ccccc12`, the “maximal ERSE-FLuc activation” value was determined as 138 ± 11.

As for `Cc1ccc(NC(=S)NC(=O)C(=O)Nc2ccccc2)cc1`, the “maximal ERSE-FLuc activation” value stood at 6.38 ± 2.8.

Turning to `C=CCNC(=O)c1sc2nc3cc(C)c(C)cc3cc2c1N`, the “maximal ERSE-FLuc activation” value was 8.68 ± 2.

For the compound `N#CC1=C(N)Oc2c(ccc3ccccc23)C1c1ccccc1` (stereo unspecified), the “maximal ERSE-FLuc activation” value amounted to 15.5 ± 0.4. For the compound `COc1ccc(/C=C2\SC(=O)NC2=Nc2ccc(C)cc2)c(OC)c1`, the “maximal ERSE-FLuc activation” value turned out to be 18.2 ± 3.2.

Regarding `COc1ccc(/C=N/NC(=O)c2cccc(F)c2)cc1Br`, the “maximal ERSE-FLuc activation” value stood at 31 ± 5.5.

On to `COc1cccc(-c2cc(C(=O)Nc3cc(C)ccc3O)on2)c1`, for which the “maximal ERSE-FLuc activation” value was determined as 87 ± 20. In the case of `OCCNc1nc(Nc2ccc(Br)cc2)nc2ccccc12`, the “maximal ERSE-FLuc activation” value was 132 ± 7.4.

As for `O=C(Nc1ccccc1O)c1ccc(C(=O)c2ccccc2)cc1`, the “maximal ERSE-FLuc activation” value came to 103 ± 3.3. Turning to `Oc1ccc(-c2csc3nc(-c4ccccc4)nn23)c(O)c1`, the “maximal ERSE-FLuc activation” value was 30.1 ± 2.2. Consider `CCCCCCc1ccc(-c2ncc(N)cn2)cc1`, for which the “maximal ERSE-FLuc activation” value stood at 76.7 ± 9.1. `O=[N+]([O-])c1ccccc1NC(=S)N/N=C/c1ccc(O)c(O)c1`: the “maximal ERSE-FLuc activation” value is 21.3 ± 3.4. As to `O=C(N/N=C\C(Br)=C\c1ccccc1)c1n[nH]c2c1CCCC2`, the “maximal ERSE-FLuc activation” value was determined as 17.2 ± 4.7.

Turning to `Nc1ccc(-c2nc3cc(N)c(Cl)cc3[nH]2)cc1`, the “maximal ERSE-FLuc activation” value came to 29.6 ± 7.5.

`C=CCNC(=O)c1cc(-c2ccccc2)on1`: the “maximal ERSE-FLuc activation” value was found to be 99.6 ± 17. With `Nc1ccc2nc(-c3ccc(Cl)cc3)[nH]c2c1` the figure was 68.5 ± 6.7. For the compound `Nc1ccc2nc(/C=C/c3ccco3)[nH]c2c1`, the “maximal ERSE-FLuc activation” value came out at 27.4 ± 2.5. `COc1ccc(-c2cc(C(=O)Nc3cc(C)ccc3O)on2)cc1OC`: the “maximal ERSE-FLuc activation” value was determined as 29.1 ± 5.3. With `O=C(Nc1ccc2nc(NC(=O)C3CCCCC3)sc2c1)C1CCCCC1` the figure was 13.9 ± 2.4; with `N#Cc1c(NC(=O)c2ccc3c(c2)OCO3)sc2c1CCCC2`, 18.3 ± 3.2; with `Cc1cc2nc(-c3ccc(SCC#N)nc3)[nH]c2cc1C`, 20.4 ± 3.8.

In the case of `O=C(CC(=O)Nc1ccc2nc3n(c(=O)c2c1)CCCCC3)NCc1ccco1`, the “maximal ERSE-FLuc activation” value was found to be 77.9 ± 9.8. With `COc1ccc(/C=N/c2sc3c(c2C(N)=O)CCCC3)cc1`, the “maximal ERSE-FLuc activation” value came to 20.9 ± 2. On to `COc1ccccc1-c1cnnc(N/N=C/c2c[nH]c3ccccc23)n1`, for which the “maximal ERSE-FLuc activation” value was 49.9 ± 8.2. Turning to `Nc1c(C(=O)Nc2ccccc2)sc2nc3c(cc12)CCCCC3`, the “maximal ERSE-FLuc activation” value turned out to be 29.8 ± 4.8. As to `Cc1ccc(O)c(NC(=O)c2cc(-c3cccs3)on2)c1`, the “maximal ERSE-FLuc activation” value was found to be 126 ± 5.9. In the case of `COc1ccc(N(C(=O)c2ccccc2)S(=O)(=O)c2cc(OC)ccc2OC)cc1`, the “maximal ERSE-FLuc activation” value is 125 ± 14. On to `Oc1ccccc1/C=N\Nc1nc2ccccc2o1`, for which the “maximal ERSE-FLuc activation” value amounted to 12.4 ± 3.9. With `Cc1ccn2cc(-c3ccc(O)c(O)c3)nc2c1` the figure was 25.3 ± 5.2. In the case of `O=C(Nc1ccc2c(c1)OCCO2)C(=O)Nc1ccccc1Cl`, the “maximal ERSE-FLuc activation” value came to 16.5 ± 0.52. On to `Cc1ccc(O)c(NC(=O)c2cc(C(C)C)on2)c1`, for which the “maximal ERSE-FLuc activation” value amounted to 39.9 ± 7.2. In the case of `Oc1ccc(/C=N/Nc2cccc3cccnc23)c(O)c1` it was 36.6 ± 4.9.

These data come from the supplement of paper PMC4954754.
